Some test systems named below: CAKI-1; SF-539; DU-145; OVCAR-5; OVCAR-3; UO-31; CCRF-CEM; IGROV-1; KM12; UACC-62; EKVX; COLO 205; SK-OV-3; MOLT-4; TK-10; OVCAR-8; SK-MEL-28; SF-295; Malme-3M; A498.
Experiment in all cases: DTP human tumour cell line panel, 48 h

Molecules are shown by their SMILES.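 How tested: cells in 96-well plates exposed to compound for 48 hours at five concentrations. GI50 marks 50% less growth.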 Active and inactive are the calls of the source. No stated cut-off is given here; in the data, active = GI50 up to about 1.1 µM and inactive = higher. Some results are limits rather than exact numbers.

The values that follow come from ChEMBL document CHEMBL1201862, “PubChem BioAssay data set” (2004).

Consider `Cc1csc2n(C)c(=O)c3ccccc3[n+]12`, for which the GI50 with CAKI-1, in the assay with SF-539, in the assay with DU-145, in the assay on OVCAR-5, with OVCAR-3 and with UO-31 was > 100 µM (inactive) each time. The GI50 in the assay on CCRF-CEM, in the assay on IGROV-1, in the assay with KM12, with UACC-62, with EKVX and with COLO 205 was > 100 µM (inactive) each time. Further, the GI50 in the assay with SK-OV-3, with MOLT-4, with TK-10, in the assay on OVCAR-8, in the assay on SK-MEL-28 and with SF-295 was > 100 µM (inactive) throughout.

Turning to `Oc1cccc(/C=N/N=c2/[nH][nH]/c(=N/N=C/c3cccc(O)c3)c3ccccc23)c1`, the GI50 in the assay on CAKI-1 was 29.1 µM (inactive); in the assay on SF-539 it was 16.9 µM (inactive); with DU-145 it was 23.9 µM (inactive); with Malme-3M, 15.5 µM (inactive); in the assay on OVCAR-5, 40.1 µM (inactive); in the assay with OVCAR-3 it was 13.9 µM (inactive). The GI50 in the assay on UO-31 was 15 µM (inactive); in the assay on CCRF-CEM it was 3.83 µM (inactive); in the assay on IGROV-1, 11.6 µM (inactive); in the assay with KM12 it was 25.2 µM (inactive); in the assay on UACC-62, 13.5 µM (inactive); with EKVX, 18.3 µM (inactive). For the same compound, the GI50 in the assay with COLO 205 is 30.4 µM (inactive); in the assay with SK-OV-3 it was 29.3 µM (inactive); with MOLT-4 it was 0.426 µM (active); with TK-10, 22.1 µM (inactive); in the assay with OVCAR-8, 2.72 µM (inactive); in the assay on SK-MEL-28 it was 21.8 µM (inactive). Further, the GI50 in the assay on SF-295 is 13.5 µM (inactive).

On to `Cc1cc(=O)oc2c(CNC(CO)C(=O)O)c(O)ccc12` (centres undefined), for which the GI50 in the assay with CAKI-1, in the assay on SF-539, in the assay on DU-145, in the assay on Malme-3M, in the assay with OVCAR-5 and in the assay with OVCAR-3 was > 100 µM (inactive) throughout. Also, the GI50 with UO-31 is 73.1 µM (inactive); in the assay with CCRF-CEM it was > 100 µM (inactive); in the assay on IGROV-1 it was > 100 µM (inactive); in the assay on KM12, > 100 µM (inactive); with UACC-62, > 100 µM (inactive); in the assay with EKVX it was > 100 µM (inactive). Moreover, the GI50 in the assay with COLO 205 is > 100 µM (inactive); in the assay on SK-OV-3, > 100 µM (inactive); in the assay with MOLT-4, > 100 µM (inactive); with TK-10, 80.9 µM (inactive); with OVCAR-8 it was > 100 µM (inactive); with SK-MEL-28, > 100 µM (inactive). For the same compound, in the assay with SF-295, the GI50 is > 100 µM (inactive).

On to `O=c1oc2c(Cl)cc(Cl)cc2cc1C1=CSC2=NCCN12`, for which the GI50 is 52.2 µM (inactive) in the assay on CAKI-1; > 100 µM (inactive) in the assay on SF-539; 40.1 µM (inactive) in the assay with DU-145; > 100 µM (inactive) with OVCAR-5; 26.7 µM (inactive) in the assay with OVCAR-3; 29.3 µM (inactive) with UO-31. For the same compound, the GI50 is 31.3 µM (inactive) in the assay on CCRF-CEM; 48.8 µM (inactive) with IGROV-1; 57.8 µM (inactive) in the assay on KM12; 51.9 µM (inactive) with UACC-62; 41.9 µM (inactive) with EKVX; > 100 µM (inactive) with COLO 205. Moreover, the GI50 in the assay with SK-OV-3 was > 100 µM (inactive); in the assay with MOLT-4 it was 39.3 µM (inactive); with TK-10, 73.1 µM (inactive); with OVCAR-8, 63.7 µM (inactive); in the assay with SK-MEL-28, 47.1 µM (inactive); in the assay on SF-295, 40 µM (inactive).

For the compound `CN(C)c1ccc(-c2nc(-c3cc4c(ccc5ccccc54)oc3=O)cs2)cc1`, the GI50 with CAKI-1, in the assay on SF-539, in the assay on DU-145, in the assay on Malme-3M, in the assay with OVCAR-5 and with UO-31 was > 100 µM (inactive) throughout. Also, the GI50 with CCRF-CEM, with IGROV-1, in the assay with KM12, with UACC-62, in the assay with EKVX and in the assay with COLO 205 was > 100 µM (inactive) throughout. Moreover, the GI50 with SK-OV-3, with MOLT-4, in the assay on TK-10, with OVCAR-8, in the assay with SK-MEL-28 and in the assay with SF-295 was > 100 µM (inactive) in each case.

`CCOC(=O)c1nc2c3c(ncn2n1)Oc1c(c(-c2ccccc2)nn1-c1ccccc1)C3c1ccc(OC)c(OC)c1` (centres undefined): the GI50 with CAKI-1 is 50.1 µM (inactive); in the assay with SF-539, 11.9 µM (inactive); in the assay with DU-145 it was > 100 µM (inactive); with Malme-3M, > 100 µM (inactive); in the assay on OVCAR-5, > 100 µM (inactive); in the assay on OVCAR-3, > 100 µM (inactive). Besides, the GI50 with UO-31 is > 100 µM (inactive); with CCRF-CEM, > 100 µM (inactive); with IGROV-1, 52.1 µM (inactive); in the assay with KM12, > 10 µM (inactive); in the assay on UACC-62 it was 48.6 µM (inactive); in the assay on EKVX it was 50.4 µM (inactive). Moreover, the GI50 with COLO 205 was > 100 µM (inactive); with SK-OV-3, 92.9 µM (inactive); in the assay with MOLT-4 it was > 100 µM (inactive); in the assay with TK-10, > 100 µM (inactive); in the assay on OVCAR-8, 25.9 µM (inactive); in the assay with SK-MEL-28, 49.2 µM (inactive). Also, the GI50 in the assay on SF-295 is 23.8 µM (inactive).

In the case of `O=S(=O)(CCC[C@H]1[C@@H](CCOCc2ccccc2)C2CCCN1O2)c1ccccc1` (some centres undefined), the GI50 in the assay on CAKI-1, in the assay with SF-539, with Malme-3M, in the assay on OVCAR-5, in the assay with OVCAR-3 and in the assay on UO-31 was > 100 µM (inactive) throughout. The GI50 is > 100 µM (inactive) in the assay on CCRF-CEM; > 100 µM (inactive) in the assay with IGROV-1; > 100 µM (inactive) with KM12; > 100 µM (inactive) in the assay on UACC-62; 57.3 µM (inactive) in the assay with EKVX; > 100 µM (inactive) in the assay on COLO 205. Also, the GI50 was > 100 µM (inactive) in the assay on SK-OV-3; 65.3 µM (inactive) in the assay on MOLT-4; > 100 µM (inactive) in the assay with A498; > 100 µM (inactive) with TK-10; > 100 µM (inactive) in the assay on OVCAR-8; > 100 µM (inactive) with SK-MEL-28. Moreover, the GI50 with SF-295 is > 100 µM (inactive).

`O=C(O)CCCNc1ncc2c(n1)-c1ccccc1OC2`: the GI50 in the assay with CAKI-1, with SF-539, in the assay with DU-145, in the assay on Malme-3M, in the assay with OVCAR-5 and in the assay on OVCAR-3 was > 100 µM (inactive) in each case. In addition, the GI50 with UO-31 is 68.2 µM (inactive); in the assay on CCRF-CEM, > 100 µM (inactive); in the assay on IGROV-1, 47.8 µM (inactive); with KM12, > 100 µM (inactive); in the assay with UACC-62, > 100 µM (inactive); in the assay on EKVX, > 100 µM (inactive). Moreover, the GI50 in the assay with COLO 205, with SK-OV-3, in the assay with MOLT-4, with TK-10, in the assay on OVCAR-8 and with SK-MEL-28 was > 100 µM (inactive) in each case. For the same compound, the GI50 with SF-295 was > 100 µM (inactive).

For orientation: GI50 means the concentration giving 50% growth inhibition.
